The values that follow come from patent EP1351565B1, “CHEMICAL INHIBITORS OF MISMATCH REPAIR” (Morphotek, Inc., priority 2001, dated 2002).

The test system of series [1] is immortalized human breast epithelial cells. The settings on record: cited from earlier work.
The subject of a further series is MMR activity. The settings on record: in vitro assays; cited from earlier work.
Series [2] deals with Arabidopsis thaliana. Briefly: Toxicity curve of DMA and EMS on Arabidopsis seeds (root and shoot formation). It counts as in vivo. As to the method: Briefly, AT seeds were sterilized with straight commercial bleach and 100 seeds were plated in 100mm Murashige and Skoog (MS) phytagar (Life Technology) plates with increasing amounts of DMA (ranging from 100µm to 50mM). A similar amount of seeds were plated on MS phytagar only or in MS phytagar with increasing amounts of EMS (100µM to 50mM), a mutagen commonly used to mutate AT seeds (McCallum, C.M.et al. (2000) Nat. Biotechnol.18:455-457). Plates were grown in a temperature-controlled, fluorescent-lighted humidifier (Percival Growth Chamber) for 10 days. After 10 days, seeds were counted to determine toxicity levels for each compound. […] Plantlets that were identical to untreated seeds were scored healthy. Seeds with stunted root or shoot formation were scored intermediate (inter). Non-germinated seeds were scored dead. Table 2: Toxicity curve of DMA and EMS on Arabidopsis (per […])

The test system of series [3] is Arabidopsis thaliana. Description: New phenotypes in offspring of chemically treated Arabidopsis plants. It counts as in vivo. As to the method:
Next, 50 seeds were plated in two 150mm dishes containing 2mM DMA, 250 µM EMS or no drug. Seeds were grown for 10 days and then 10 plants from each plate were transferred to soil. All plants appeared to be similar in color and height. Plants were grown at room temperature with daily cycles of 18 hr light and 6 hr dark. After 45 days seeds are harvested from siliques and stored in a desiccator at 4°C for 72 hours. Seeds are then sterilized and 100 seeds from each plant is sown directly into water-saturated soil and grown at room temperature with daily cycles of 18 hr light and 6 hr dark. […] These 7 altered plants were light green in color and appeared to grow slower. […] DMA-exposed plants produced offspring that were yellow in appearance in contrast to dark green, which is always found in wild-type plants. In addition, the yellow plants were also shorter. After 30 days, most wild-type plants produced flowers and siliques, while the 7 mutants just began flowering. After 45 days, control plants were harvested while mutant plants were harvested 10 to 15 days later.

Another series relates to H36pCAR-OF cell line. Description: H36pCAR-OF screening assay (MMR-sensitive β-galactosidase reporter). It counts as cell-based, murine.
The subject of series [4] is human HEK293 cells. Description: Microsatellite instability of endogenous BAT26 marker in 293 cells. The series is classed as cell-based. The settings on record: 250 µM DMA. As to the method:
Briefly, […] were grown in control medium or 250 µM DMA, a concentration that is found to be non-toxic, for 14 to 17 days. Cells are then harvested and genomic DNA isolated using the salting out method (Nicolaides, N.C. et al. (1991) Mol. Cell. Biol. 11 :6166-6176.).
Various amounts of test DNAs from HCT116 (a human colon epithelial cell line) and 293 were first used to determine the sensitivity of our microsatellite test. The BAT26 alleles are known to be heterogeneous between these two cell lines and the products migrate at different molecular weights (Nicolaides personal observation). DNAs were diluted by limiting dilution to determine the level of sensitivity of the assay. DNAs were PCR amplified using the BAT26F: 5'-[…]-3' (SEQ ID NO:43) and the BAT26R: 5'-[…]-3' (SEQ ID NO:44) primers in buffers as described (Nicolaides, N.C. et al. (1995) Genomics 30:195-206). Briefly 1 pg to 100 ngs of DNA were amplified using the following conditions: 94°C for 30 sec, 58°C for 30 sec, 72°C for 30 sec for 30 cycles. […]
To measure for microsatellite stability in 293 cells grown with or without DMA, 0.1 ngs of DNA from DMA-treated or control 293 cells were amplified using the reaction conditions above. […] Fifty bacterial colonies were analyzed for BAT26 structure by directly adding an aliquot of live bacteria to the PCR mix. […]

Series [5] has as its system human HEK293 cells. Briefly: Toxicity in HEK293 cells. It counts as cell-based. The conditions noted are these: 250 µM, 293 cells.
The test system of series [6] is Pichia yeast containing a pGUS-OF reporter system. Description: Pichia yeast pGUS-OF reporter assay for MMR blockade. It counts as cell-based. The conditions noted are these: 300 µM, 48 hours. As to the method:
Briefly, the GUS-OF and GUS-IF gene, which contains a polyA repeat at the N-terminus of the protein was subcloned from the pCR=IF-GUS and pCR-OF-GUS plasmids into the EcoRI site of the pGP vector, which is a consitutively expressed yeast vector containing a zeocin resistance gene as selectable marker. pGP-GUS-IF and pGP-GUS-OF vectors were electroporated into competent Pichia cells using standard methods known by those skilled in the art. Cells were plated on YPD agar (10g/L yeast extract; 20 g/L peptone; 2% glucose; 1.5% bactoagar) plates containing 100 µg/ml zeocin. Recombinant yeast are then analyzed for GUS expression/function by replica plating on YPD agar plates containing 100 µg/ml zeocin plus 1 mg/ml X-glu (5-bromo-4-chloro-3-indoyl-beta-D-glucuronide sodium salt) and grown at 30°C for 16 hours. […] None of the yeast containing the GUS-OF turned blue in the presence of the X-glu substrate under normal growth conditions.
After incubation, yeast were plated on YPD-ZEO-X-GLU plates and grown at 30°C for 16 hours.
(A reporter such as luciferase makes a cellular process visible.)

For series [7] the following is noted: at high concentrations; cited from earlier work.
For series [8] the following is noted: rat-liver microsomal preparations; cited from earlier work. Background: Liver microsomes are a subcellular fraction often used to study metabolism.
In another series the test system is MMR defective cell lines. The settings on record: cited from earlier work.
Where [9] appears, read: concentration 0.5 (mM), 10 days.
The mark [10] stands for this setting: concentration 1.0 (mM), 10 days.
[11] abbreviates: concentration 2.5 (mM), 10 days.
The mark [12] stands for this setting: concentration 5.0 (mM), 10 days.
The mark [13] stands for this setting: concentration 12.5 (mM), 10 days.
Where [14] appears, read: Arabidopsis thaliana, in vivo, 10 days, 0.1 mM.
Where [15] appears, read: Arabidopsis thaliana, in vivo, 10 days, 0.5 mM.
Where [16] appears, read: Arabidopsis thaliana, in vivo, 10 days, 1 mM.
Where [17] appears, read: Arabidopsis thaliana, in vivo, 10 days, 2.5 mM.
Setting [18] is: Arabidopsis thaliana, in vivo, 10 days, 5 mM.
[19] abbreviates: Arabidopsis thaliana, in vivo, 10 days, 10 mM.
Where [20] appears, read: Arabidopsis thaliana, in vivo, 10 days, 12.5 mM.
Setting [21] is: Arabidopsis thaliana, in vivo, 10 days, 25 mM.
The mark [22] stands for this setting: Arabidopsis thaliana, in vivo, 10 days, 50 mM.

In the case of `Cc1c2ccccc2c(C)c2c1ccc1ccccc12` [7,12-dimethylbenz[a]anthracene], in series [1], the “effect on MMR activity” value was “MMR activity might have been blocked”.
Take `Nc1ncnc2c1ncn2[C@@H]1O[C@H](COP(=O)(O)OP(=O)(O)NP(=O)(O)O)[C@@H](O)[C@H]1O` [AMP-PNP]: in the series with MMR activity, the “effect on MMR activity” value is “block the MMR activity”.
As to `Nc1ncnc2c1ncn2[C@@H]1O[C@H](COP(=O)(O)OP(=O)(O)OP(O)(O)=S)[C@@H](O)[C@H]1O` [ATP[gamma]S], the “effect on MMR activity” value in the series on MMR activity is on record as “block the MMR activity”.
For `Cc1c2ccccc2c(C)c2ccccc12` [DMA, 9,10-dimethylanthracene], the Dead came to 0 per 100 seeds in the series on Arabidopsis thaliana [2] (concentration 0.1 (mM), 10 days, non-germinated seeds scored dead); 0 per 100 seeds with Arabidopsis thaliana [2] (setting [9]); 0 per 100 seeds in the series with Arabidopsis thaliana [2] (setting [10]); 0 per 100 seeds with Arabidopsis thaliana [2] (setting [11]); 0 per 100 seeds with Arabidopsis thaliana [2] (setting [12]); 0 per 100 seeds with Arabidopsis thaliana [2] (concentration 10 (mM), 10 days). In addition, the Dead in the series with Arabidopsis thaliana [2] (setting [13]) turned out to be 0 per 100 seeds; with Arabidopsis thaliana [2] (concentration 25 (mM), 10 days), 0 per 100 seeds; in the series on Arabidopsis thaliana [2] (concentration 50 (mM), 10 days), 100 per 100 seeds. The Inter came out at 0 per 100 seeds in the series with Arabidopsis thaliana [2] (concentration 0.1 (mM), 10 days, stunted root or shoot formation scored intermediate); 0 per 100 seeds in the series on Arabidopsis thaliana [2] (setting [9]); 0 per 100 seeds with Arabidopsis thaliana [2] (setting [10]); 20 per 100 seeds in the series on Arabidopsis thaliana [2] (setting [11]); 15 per 100 seeds in the series with Arabidopsis thaliana [2] (setting [12]); 32 per 100 seeds with Arabidopsis thaliana [2] (concentration 10 (mM), 10 days). The Inter came to 85 per 100 seeds in the series with Arabidopsis thaliana [2] (setting [13]); 100 per 100 seeds in the series on Arabidopsis thaliana [2] (concentration 25 (mM), 10 days); 0 per 100 seeds with Arabidopsis thaliana [2] (concentration 50 (mM), 10 days). Moreover, the Healthy was found to be 94 per 100 seeds in the series with Arabidopsis thaliana [2] (concentration 0.1 (no unit in head; mM), MS phytagar, 10 days, identical to untreated seeds); 99 per 100 seeds with Arabidopsis thaliana [2] (concentration 0.5 (mM), MS phytagar, 10 days); 99 per 100 seeds in the series on Arabidopsis thaliana [2] (concentration 1.0 (mM), MS phytagar, 10 days); 80 per 100 seeds with Arabidopsis thaliana [2] (concentration 2.5 (mM), MS phytagar, 10 days); 85 per 100 seeds in the series on Arabidopsis thaliana [2] (concentration 5.0 (mM), MS phytagar, 10 days); 65 per 100 seeds with Arabidopsis thaliana [2] (concentration 10 (mM), MS phytagar, 10 days). For the same molecule, the Healthy is recorded as 0 per 100 seeds with Arabidopsis thaliana [2] (concentration 12.5 (mM), MS phytagar, 10 days); 0 per 100 seeds in the series with Arabidopsis thaliana [2] (concentration 25 (mM), MS phytagar, 10 days); 0 per 100 seeds in the series with Arabidopsis thaliana [2] (concentration 50 (mM), MS phytagar, 10 days). Further, the “concentration at which toxicity occurs” value in the series on Arabidopsis thaliana [2] (continuous culture, Arabidopsis seeds) is 10 mM. In addition, the phenotypically distinct plants with Arabidopsis thaliana [3] (offspring at day 10 of plants grown from seeds plated in 2mM DMA) was 7 out of 118. In the series on H36pCAR-OF cell line, the “MI and/or shifting of the polynucleotide tract in the pCAR-OF reporter (β-galactosidase positive cells)” value is on record as “shifting the pCAR-OF reporter plasmid”. Further, in the series with human HEK293 cells [4] (14 to 17 days, PCR and 12% PAGE), the “BAT26 alleles (microsatellite instability)” value is recorded as “showed the presence of an altered allele”. In the series on human HEK293 cells [4] (five clones sequenced, control homozygous 26nt polyA), the “BAT26 polyA repeat length by sequence analysis” value is “multiple alleles ranging from the wild-type with 26 polyA repeat to shorter alleles (24 polyA repeat) and larger alleles (28 polyA repeat)”. Moreover, the toxicity entry with human HEK293 cells [5] was “non-toxic”. Moreover, the “blue subclones (GUS activity) on YPD-ZEO-X-GLU plates” value in series [6] is given as “a subset of yeast expressing GUS-OF contain blue subclones”. The mutagenicity result in series [7] is on record as “acts as a potent weak mutagen”. Besides, the metabolites formed entry in series [8] was “converted to 9-Hydroxymethyl-10-methylanthracene (9-OHMeMA) and 9,10-dihydroxymethyl-anthracene (9,10-DiOHMeA)”.
In the case of `CCOS(C)(=O)=O` [EMS, ethyl methanesulfonate], the “concentration at which toxicity occurs” value in the series with Arabidopsis thaliana [2] (Arabidopsis thaliana, in vivo, 10 days) is recorded as 250 µm. Besides, the Healthy with Arabidopsis thaliana [2] (setting [14]) is 100 per 100 cells; with Arabidopsis thaliana [2] (setting [15]), 45 per 100 cells; with Arabidopsis thaliana [2] (setting [16]), 25 per 100 cells; with Arabidopsis thaliana [2] (setting [17]), 0 per 100 cells; with Arabidopsis thaliana [2] (setting [18]), 0 per 100 cells; in the series with Arabidopsis thaliana [2] (setting [19]), 0 per 100 cells. The Healthy with Arabidopsis thaliana [2] (setting [20]), in the series on Arabidopsis thaliana [2] (setting [21]) and in the series with Arabidopsis thaliana [2] (setting [22]) was 0 per 100 cells in each case. The Inter in the series with Arabidopsis thaliana [2] (setting [14]) was determined as 0 per 100 cells; in the series with Arabidopsis thaliana [2] (setting [15]) it was 54 per 100 cells; in the series with Arabidopsis thaliana [2] (setting [16]), 75 per 100 cells; in the series on Arabidopsis thaliana [2] (setting [17]), 0 per 100 cells; in the series with Arabidopsis thaliana [2] (setting [18]), 0 per 100 cells; in the series with Arabidopsis thaliana [2] (setting [19]), 0 per 100 cells. For the same molecule, the Inter in the series with Arabidopsis thaliana [2] (setting [20]), in the series with Arabidopsis thaliana [2] (setting [21]) and in the series with Arabidopsis thaliana [2] (setting [22]) was 0 per 100 cells throughout. Moreover, in the series with Arabidopsis thaliana [3] (150 offspring at day 10 of plants grown from seeds plated in 250 µM EMS), the phenotypically distinct plants is on record as “no phenotypic difference was observed”. The “MI and/or shifting of the polynucleotide tract in the pCAR-OF reporter (β-galactosidase positive cells)” value in the series with H36pCAR-OF cell line was “did not result in MI”. The “blue subclones (GUS activity) on YPD-ZEO-X-GLU plates” value in series [6] is “none are seen”.
Take `COc1ccc2nc3cc(Cl)ccc3c(NCCCNCCCl)c2c1` [ICR191]: the “mutation rates in MMR defective cell lines” value in the series with MMR defective cell lines is given as “produce enhanced mutation rates in already MMR defective cell lines”.
For `c1ccc2c(c1)cc1ccc3cccc4ccc2c1c34` [benzo [a]pyrene], the “effect on MMR activity” value in [1] was “MMR activity might have been blocked”.
